Laboratory results: ChEMBL document CHEMBL1128660, “Synthesis and fungicidal activity of 2,2-bipyridine derivatives” (1995)

Assays:
Type in all cases: functional
Botrytis cinerea [1] = assay: Fungicidal activity (under greenhouse conditions against Cucumber botrytis (Botrytis cinerea) at 200 ppm
Blumeria graminis [2] = assay: Fungicidal activity under greenhouse conditions against Wheat powdery mildew (Erisyphe graminis) at 200 ppm at 200 ppm
Phytophthora infestans = assay: Fungicidal activity under greenhouse conditions against Tomato late blight (Phtyopthora infestans) at 200 ppm
Pyricularia grisea [3] = assay: Fungicidal activity under greenhouse conditions against Rice blast (Pyricularia oryzae) at 200 ppm
Oculimacula yallundae [4] = assay: Fungicidal activity under greenhouse conditions against Wheat foot rot (Pseudocercosporella herpotrichoides) at 200 ppm.
Puccinia recondita [5] = assay: Fungicidal activity under greenhouse conditions against Wheat leaf rust (Puccinia recondita) at 200 ppm
Thanatephorus cucumeris = assay: Fungicidal activity under greenhouse conditions against Rice sheath blight (Rhizoctonia solani) at 200 ppm
Blumeria graminis [6] = assay: The fungicidal activity (percent disease control) under greenhouse conditions against Wheat powdery mildew (Erisyphe graminis) at 200 ppm at 200 ppm; shows curative effect
Plasmopara viticola [7] = assay: The fungicidal activity (percent disease control) under greenhouse conditions against Grape downy mildew (Plasmopara viticola) at 40 ppm
Parastagonospora nodorum [8] = assay: The fungicidal activity (percent disease control) under greenhouse conditions against Wheat septoria (Septoria nodorum) at 200 ppm
Parastagonospora nodorum [9] = assay: The fungicidal activity (percent disease control) under greenhouse conditions against Wheat septoria (Septoria nodorum) at 40 ppm; shows curative effect
Blumeria graminis [10] = assay: The fungicidal activity (percent disease control) under greenhouse conditions against Wheat powdery mildew (Erisyphe graminis) at 40 ppm; shows curative effect
Puccinia recondita [11] = assay: The fungicidal activity (percent disease control) under greenhouse conditions against Wheat leaf rust (Puccinia recondita) at 40 ppm
Plasmopara viticola [12] = assay: The fungicidal activity (percent disease control) under greenhouse conditions against Grape downy mildew (Plasmopara viticola) at 200 ppm
Pyricularia grisea [13] = assay: The fungicidal activity (percent disease control) under greenhouse conditions against Rice blast (Pyricularia oryzae) at 200 ppm; shows curative effect
Puccinia recondita [14] = assay: The fungicidal activity (percent disease control) under greenhouse conditions against Wheat leaf rust (Puccinia recondita) at 40 ppm; shows curative effect
Botrytis cinerea [15] = assay: The fungicidal activity (percent disease control) under greenhouse conditions against Cucumber botrytis (Botrytis cinerea) at 40 ppm
Blumeria graminis [16] = assay: The fungicidal activity (percent disease control) under greenhouse conditions against Wheat powdery mildew (Erisyphe graminis) at 40 ppm […]
Parastagonospora nodorum [17] = assay: The fungicidal activity (percent disease control) under greenhouse conditions against Wheat septoria (Septoria nodorum) at 40 ppm
Puccinia recondita [18] = assay: The fungicidal activity (percent disease control) under greenhouse conditions against Wheat leaf rust (Puccinia recondita) at 200 ppm; shows curative effect
Parastagonospora nodorum [19] = assay: The fungicidal activity (percent disease control) under greenhouse conditions against Wheat septoria (Septoria nodorum) at 200 ppm; shows curative effect
Oculimacula yallundae [20] = assay: The fungicidal activity (percent disease control) under greenhouse conditions against Wheat foot rot (Pseudocercosporella herpotrichoides) at 40 ppm

SMILES | Disease control (Botrytis cinerea [1]) | Disease control (Blumeria graminis [2]) | Disease control (Phytophthora infestans) | Disease control (Pyricularia grisea [3]) | Disease control (Oculimacula yallundae [4]) | Disease control (Puccinia recondita [5]) | Disease control (Thanatephorus cucumeris) | Disease control (Blumeria graminis [6]) | Disease control (Parastagonospora nodorum [8]) | Disease control (Parastagonospora nodorum [9]) | other results
CCCCCc1ccnc(-c2cc(CCCCC)ccn2)c1 | 0% | 92% | 0% | 27% | 0% | 90% | 93% |  |  |  | 
Clc1ccc(-c2ccc(-c3ccccn3)nc2)cc1 | 0% |  | 0% | 97% | 81% | 65% | 100% | 99% | 98% |  | Disease control (Plasmopara viticola [7]): 50%
Brc1ccc(-c2ccc(-c3ccccn3)nc2)cc1 | 0% |  | 0% | 0% | 0% | 20% | 0% | 19% |  | 58% | 
COc1ccccc1-c1ccnc(-c2cc(C)ccn2)c1 | 0% |  | 0% | 53% | 86% |  | 81% |  |  | 12% | Disease control (Blumeria graminis [10]): 30%; Disease control (Puccinia recondita [11]): 19%
Cc1ccnc(-c2cc(-c3ccccc3)ccn2)c1 | 30% | 99% | 0% | 53% | 66% | 99% | 81% |  |  | 19% | 
O=[N+]([O-])c1ccccc1-c1ccnc(-c2ccccn2)c1 | 41% | 0% | 24% | 32% | 0% | 67% | 0% |  |  | 76% | 
Cc1ccc(-c2ccccn2)nc1 | 0% | 24% | 0% | 0% | 0% | 0% | 0% |  | 0% |  | Disease control (Plasmopara viticola [12]): 0%
c1ccc(OCc2ccc(-c3ccccn3)nc2)cc1 | 0% | 11% | 0% | 0% | 0% | 0% | 0% |  | 0% |  | 
CCCCc1ccnc(-c2cc(CCCC)ccn2)c1 | 0% | 21% | 0% | 85% | 44% | 33% | 93% |  |  |  | 
COc1ccc(-c2ccc(-c3ccccn3)nc2)cc1 | 0% | 92% | 0% | 97% | 75% | 93% | 19% |  | 40% |  | Disease control (Plasmopara viticola [7]): 65%
O=[N+]([O-])c1ccc(-c2ccc(-c3ccccn3)nc2)cc1 | 0% | 0% | 0% | 0% | 0% | 0% | 0% |  | 0% |  | Disease control (Plasmopara viticola [12]): 60%
c1ccc(-c2ccc(-c3ccccn3)nc2)cc1 | 45% |  | 23% |  | 0% |  | 0% | 100% | 100% |  | Disease control (Plasmopara viticola [12]): 96%; Disease control (Pyricularia grisea [13]): 87%; Disease control (Puccinia recondita [14]): 60%
Cc1ccnc(-c2ccc(-c3ccccc3)cn2)c1 |  |  | 0% | 32% | 69% | 93% | 0% |  |  | 96% | Disease control (Botrytis cinerea [15]): 28%; Disease control (Blumeria graminis [16]): 47%
COc1ccccc1-c1ccnc(-c2ccccn2)c1 | 0% |  | 24% | 32% | 0% | 85% | 0% | 93% |  |  | Disease control (Parastagonospora nodorum [17]): 27%
CCCCCCCCCCCCc1ccnc(-c2cc(CCCCCCCCCCCC)ccn2)c1 | 0% | 0% | 0% | 0% | 0% |  | 0% |  |  |  | 
c1ccc(-c2ccnc(-c3ccccn3)c2)cc1 | 0% |  | 0% | 74% | 0% |  | 0% | 95% |  | 94% | Disease control (Plasmopara viticola [12]): 96%; Disease control (Puccinia recondita [14]): 11%
Cc1ccc(-c2ccc(-c3ccccn3)nc2)cc1 | 59% |  | 0% | 32% | 0% |  | 0% | 99% |  |  | Disease control (Puccinia recondita [18]): 84%; Disease control (Parastagonospora nodorum [19]): 95%
Fc1ccc(-c2ccc(-c3ccccn3)nc2)cc1 | 0% |  | 24% | 32% |  | 64% | 100% | 55% |  | 32% | Disease control (Oculimacula yallundae [20]): 27%
CC(C)c1ccnc(-c2cc(C(C)C)ccn2)c1 | 0% | 38% | 0% | 67% | 12% |  | 73% |  |  |  | 
